Results on three compounds are retold here after US8916498B2, “Safening 6-(trisubstituted phenyl)-4-amino-2-pyridinecarboxylate herbicide injury on direct seeded and transplanted paddy rice” (priority 2008, dated 2014).

SMILES strings stand for the structures.

In one test the test system is ECHCO. The experiment in a line: Postemergence herbicidal safening in direct seeded rice, visual injury on weed. It is filed as in vivo. The settings on record: alone, after 3 weeks.
In a further test the test system is CYPDI. The test is described as above. It is filed as in vivo. The settings on record: alone, after 3 weeks.
Another test relates to weed test plant species. The experiment in a line: Herbicidal safening in transplanted paddy rice, visual injury on weeds. The conditions noted are these: after 3 weeks; for Visual Injury (%) CYPDI Obs: Cyperus difformis; for Visual Injury (%) MOOVA Obs: Monochoria vaginalis. The format is in vivo. The protocol: Evaluation of Herbicidal Safening in Transplanted Paddy Rice
The prepared mud was dispensed in 250 mL aliquots into 480 mL non-perforated plastic pots with a surface area of 91.6 cm^2 leaving a headspace of 3 cm in each pot. Rice seeds were planted in Sun Gro MetroMix 306 planting mixture, which typically has a pH of 6.0 to 6.8 and an organic matter content of about 30 percent, in plastic plug trays. Seedlings at the second or third leaf stage of growth were transplanted into 650 mL of mud contained in 960 mL non-perforated plastic pots with a surface area of 91.6 cm^2 four days prior to herbicide application. The paddy was created by filling the 3 cm headspace of the pots with water. […] Nutrients were added as Osmocote (17:6:10, Nitrogen:Phosphorus:Potassium (N:P:K)+minor nutrients) at 2 grams (g) per cup.
For technical grade compounds and safeners, a weighed amount, determined by the highest rate to be tested, was placed in an individual 120 mL glass vial and was dissolved in 20 mL of acetone to obtain concentrated stock solutions. […] The concentrated stock solutions obtained were diluted with 20 mL of acetone. Applications were made by injecting an appropriate amount of the stock solution into the aqueous layer of the paddy. […] All treated plant material received the same concentration of acetone and crop oil concentrate.

The next test relates to SEBEX. The experiment in a line: Postemergence herbicidal safening in direct seeded rice, visual injury on weed. The settings on record: alone, after 3 weeks. It is filed as in vivo.
For another test, the system named is ORYSA (rice). The experiment in a line: Postemergence herbicidal safening in direct seeded rice, visual injury. The settings on record: for Visual Injury (%) ‘Lemont’ ORYSA Obs / ORYSA Visual Injury (%) ‘Cheniere’ Obs / ORYSA Visual Injury (%) ‘Clearfield’ Obs / ORYSA Visual Injury (%) ‘Cocodrie’ Obs / ORYSA Visual Injury (%) ‘Lemont’ Obs / ORYSA Visual Injury (%) ‘M202’ Obs / ORYSA Visual Injury (%) ‘Wells’ Obs: alone; for ORYSA Visual Injury (%) ‘Cheniere’ Obs / ORYSA Visual Injury (%) ‘Clearfield’ Obs / ORYSA Visual Injury (%) ‘Cocodrie’ Obs / ORYSA Visual Injury (%) ‘Lemont’ Obs / ORYSA Visual Injury (%) ‘M202’ Obs / ORYSA Visual Injury (%) ‘Wells’ Obs: after 3 weeks (Table 14). From the text: A=observed efficacy of active ingredient A at the same concentration as used in the mixture.
B=observed efficacy of active ingredient B at the same concentration as used in the mixture.

As for `CCCCCC(C)OC(=O)COc1ccc(Cl)c2cccnc12` (stereo not drawn) [Cloquintocet-mexyl], the “Visual Injury (%) ECHCO Obs” value with ECHCO (35 g ai/ha), in the test with ECHCO (70 g ai/ha), with ECHCO (140 g ai/ha), with ECHCO (280 g ae/ha) and in the test with ECHCO (280 g ai/ha) was 0% each time. Also, the “Visual Injury (%) CYPDI Obs” value with CYPDI (35 g ai/ha), in the test with CYPDI (70 g ai/ha), in the test with CYPDI (140 g ai/ha), in the test on CYPDI (280 g ae/ha), in the test with CYPDI (280 g ai/ha) and with weed test plant species (safener 70 g ai/ha alone) was 0% in each case. Further, the “Visual Injury (%) CYPDI Obs” value in the test with weed test plant species (safener 140 g ai/ha alone) and in the test with weed test plant species (safener 280 g ai/ha alone) was 0% each time. Further, the “Visual Injury (%) MOOVA Obs” value in the test with weed test plant species (safener 70 g ai/ha alone), in the test on weed test plant species (safener 140 g ai/ha alone) and in the test on weed test plant species (safener 280 g ai/ha alone) was 0% each time. Also, the “Visual Injury (%) SEBEX Obs” value in the test with SEBEX (35 g ai/ha), with SEBEX (70 g ai/ha), in the test on SEBEX (140 g ai/ha), in the test with SEBEX (280 g ae/ha) and in the test on SEBEX (280 g ai/ha) was 0% throughout. Further, the “‘M202’ ORYSA Visual Injury (%) Obs” value in the test on ORYSA (rice) (Safener Alone, 560 g ai/ha, after 3 weeks) was determined as 3.3%. Moreover, the “Visual Injury (%) ‘Lemont’ ORYSA Obs” value was determined as 0% in the test with ORYSA (rice) (35 g ai/ha, after 3 weeks); 0% in the test on ORYSA (rice) (70 g ai/ha, after 3 weeks); 0% with ORYSA (rice) (140 g ai/ha, after 3 weeks); 0% in the test with ORYSA (rice) (280 g ae/ha, after 3 weeks); 0% in the test with ORYSA (rice) (280 g ai/ha, after 3 weeks). The “ORYSA Visual Injury (%) ‘Cheniere’ Obs” value in the test on ORYSA (rice) (140 g ai/ha) and in the test with ORYSA (rice) (280 g ai/ha) was 0% in each case. Besides, the “ORYSA Visual Injury (%) ‘Clearfield’ Obs” value in the test on ORYSA (rice) (140 g ai/ha) and with ORYSA (rice) (280 g ai/ha) was 0% throughout. For the same compound, the “ORYSA Visual Injury (%) ‘Cocodrie’ Obs” value with ORYSA (rice) (140 g ai/ha) and with ORYSA (rice) (280 g ai/ha) was 0% in each case. Besides, the “ORYSA Visual Injury (%) ‘Lemont’ Obs” value with ORYSA (rice) (140 g ai/ha) and with ORYSA (rice) (280 g ai/ha) was 0% throughout. The “ORYSA Visual Injury (%) ‘M202’ Obs” value in the test on ORYSA (rice) (140 g ai/ha) and in the test on ORYSA (rice) (280 g ai/ha) was 0% each time. The “ORYSA Visual Injury (%) ‘Wells’ Obs” value in the test with ORYSA (rice) (140 g ai/ha) and in the test on ORYSA (rice) (280 g ai/ha) was 0% throughout.
`COc1c(Cl)ccc(-c2cc(N)c(Cl)c(C(=O)[O-])n2)c1F.[Na+]` [Compound 1 Na + salt]: in the test on ECHCO (70 g ai/ha), the “Visual Injury (%) ECHCO Obs” value came out at 95%. Further, the “Visual Injury (%) CYPDI Obs” value in the test on CYPDI (70 g ai/ha) was 95%; in the test with weed test plant species (herbicide 70 g ai/ha alone) it was 100%. For the same compound, the “Visual Injury (%) MOOVA Obs” value with weed test plant species (herbicide 70 g ai/ha alone) is on record as 100%. For the same compound, in the test on SEBEX (70 g ai/ha), the “Visual Injury (%) SEBEX Obs” value was 100%. The “Visual Injury (%) ‘Lemont’ ORYSA Obs” value in the test on ORYSA (rice) (70 g ai/ha, after 3 weeks) turned out to be 50%.
For `COc1c(Cl)ccc(-c2cc(N)c(Cl)c(C(=O)[O-])n2)c1Cl.[Na+]` [Compound 2 Na + salt], the “Visual Injury (%) ECHCO Obs” value with ECHCO (70 g ai/ha) was 90%. Also, the “Visual Injury (%) CYPDI Obs” value in the test on CYPDI (70 g ai/ha) came out at 100%. In the test with weed test plant species (herbicide 70 g ai/ha alone), the “Visual Injury (%) CYPDI Obs” value turned out to be 100% and the “Visual Injury (%) MOOVA Obs” value is 100%. In the test on SEBEX (70 g ai/ha), the “Visual Injury (%) SEBEX Obs” value is 100%. The “Visual Injury (%) ‘Lemont’ ORYSA Obs” value with ORYSA (rice) (70 g ai/ha, after 3 weeks) came out at 15%.
